Active and inactive are the calls of the source.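 Rule for the calls: active = AC50 no more than ten times the top concentration tested, that is within one log above it; inconclusive = flat curve fit with activity between 30% and 70%, or invalid poor fit; inactive = AC50 beyond ten times the top tested dose.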

The assay concerns S. cerevisiae Mot1-301 ts growth rescue, BacTiter-Glo ATP luminescence. As to the kind of experiment: growth rescue of Mot1-301 ts yeast, confirmation, SUMOylation pathway inhibitor project, whole organism, S. cerevisiae, Mot1-301 ts mutant, luminescence, dose retest (AID 463204).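 Note: growth at restrictive 38.5 degrees C of Mot1-301 OY566 strain; actives raise luminescence by restoring growth of the ts mutant at high temperature.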
For the compound `O=C1c2ccccc2S(=O)(=O)N1Cc1cc(=O)n2ccsc2n1`, the AC50 (commonly the concentration at which the activity in the assay is half-maximal) is > 42 µM (inactive).

`CCOc1ccc(C(=O)NNC2CC(=O)N(CCc3ccccc3)C2=O)cc1OC` (stereo not given): the AC50 was > 42 µM (inactive).

Take `O=[N+]([O-])c1ccc(-c2csc(N3CCc4ccccc4C3)n2)cc1`: the AC50 is > 42 µM (inactive).

For `CN(C)C(=O)CSc1nc2ccc(N3C(=O)c4ccccc4C3=O)cc2s1`, the AC50 is > 42 µM (inactive).

For `CCN(CC)CC(=O)Nc1ccc(Oc2ccc(NC(=O)CN(CC)CC)cc2)cc1`, the AC50 was > 42 µM (inactive).

Turning to `Fc1cccc(Cl)c1CSc1nnc(CN2CCOCC2)n1-c1ccccc1`, the AC50 was > 42 µM (inactive).

For `Cc1ccc(NS(=O)(=O)c2ccc(NC(=O)C3CCCO3)cc2)cc1` (stereo not given), the AC50 is > 42 µM (inactive).

As to `OC(COCc1cccs1)CN1CCCCCC1` (stereo not given), the AC50 is > 42 µM (inactive).

As to `COC(CNC(=O)c1cn(C)c2ccc(S(=O)(=O)N3CCOCC3)cc2c1=O)OC`, the AC50 was > 42 µM (inactive).

In the case of `COC(=O)Oc1ccc(/C=N/NS(=O)(=O)c2ccccc2)cc1OC`, the AC50 was > 42 µM (inactive).

Take `O=C(NC(=S)NNC(=O)c1ccccc1O)c1cccc([N+](=O)[O-])c1`: the AC50 was > 42 µM (inactive).

Consider `COC(=O)c1ccc(CN2CCN(C3CCCCC3)C(CCO)C2)cc1` (stereo not given), for which the AC50 is > 42 µM (inactive).

Take `COc1ccc(CN(C)S(=O)(=O)c2nnc(NC(=O)c3ccc(C)cc3)s2)cc1OC`: the AC50 is > 42 µM (inactive).

Regarding `CC1CCN(CCCCOc2cccc(C(C)C)c2)CC1`, the AC50 was > 42 µM (inactive).

As for `O=Cc1ccc(Oc2cccc(C(F)(F)F)c2)nc1`, the AC50 was > 42 µM (inactive).

For the compound `CC(=O)Nc1cccc2c1C(=O)N(c1ccccc1C)C2=O`, the AC50 was > 42 µM (inactive).

For `Cc1ccc(-n2c(SCC(=O)N(C)C3CCS(=O)(=O)C3)nc3ccccc3c2=O)cc1` (stereo not given), the AC50 is > 42 µM (inactive).

On to `O=C(Nc1ccc(OC(F)(F)F)cc1)c1ccc2ccccc2n1`, for which the AC50 was > 42 µM (inactive).

As to `COC(=O)c1ccc(SCC(=O)N2CCC(C)CC2)c([N+](=O)[O-])c1`, the AC50 was > 42 µM (inactive).

As to `c1ccc(N2CCN(C3CCSC3)CC2)cc1` (stereo not given), the AC50 was > 42 µM (inactive).

Take `CSCCC(NC(=O)c1ccco1)C(=O)N1CCN(Cc2ccccc2)CC1` (stereo not given): the AC50 was > 42 µM (inactive).

Take `Cc1ccccc1C(=O)NN(C)c1nc2ccccc2nc1C(F)(F)F`: the AC50 is > 42 µM (inactive).

As for `COc1ccc2cc3c(N)nn(C(=O)c4ccccc4Cl)c3nc2c1`, the AC50 is > 42 µM (inactive).

As to `CCNc1ccc(S(=O)(=O)N(C)C)cc1NCC(=O)Nc1ccccc1Br`, the AC50 was > 42 µM (inactive).

As for `CCOc1ccccc1/C=N\Nc1cnn(Cc2ccccc2)c(=O)c1Cl`, the AC50 is > 42 µM (inactive).

In the case of `COc1ccc(C(=O)O)cc1S(=O)(=O)NCCN(C)C`, the AC50 was > 42 µM (inactive).

As for `O=C1CN(C(=O)COC(=O)c2cccc(S(=O)(=O)NCc3ccccc3)c2)c2ccccc2N1`, the AC50 is > 42 µM (inactive).

For `O=C(c1ccc(COc2ccccc2Cl)o1)N1N=C(C(F)F)CC1(O)C(F)F` (stereo not given), the AC50 was > 42 µM (inactive).

As for `O=C(NNC(=O)c1csc(N2CCOCC2)n1)c1ccc(Cl)nc1`, the AC50 was > 42 µM (inactive).

As to `COc1ccc(-c2cc(C#N)nc(N3CCN(c4ccccc4)CC3)n2)cc1`, the AC50 was > 42 µM (inactive).

Consider `COc1nc(OC)nc(N2CCC(C(=O)NC3CCCCCC3)CC2)n1`, for which the AC50 is > 42 µM (inactive).

As for `O=C(Nc1nccs1)C1CCN(S(=O)(=O)c2ccc(Cl)c(C(F)(F)F)c2)CC1`, the AC50 was > 42 µM (inactive).

In the case of `Cc1cc2c3c(c1)C1(SCC(=O)N1c1ccc(F)cc1)C(=O)N3C(C)(C)CC2C` (stereo not given), the AC50 is 6.97 µM.

Turning to `Cn1c(C(=O)NCCc2ccsc2)cc2c(=O)n(C)c3ccccc3c21`, the AC50 is > 42 µM (inactive).

Take `Oc1c(Br)cc(Br)cc1/C=N/n1c(-c2ccccc2)n[nH]c1=S`: the AC50 is 26.2 µM.

These data come from PubChem BioAssay AID463204 (Broad Institute, 2010).
